The test system of data set [1] is MCF-7 human breast cancer cells. The experiment in a line: XTT cytotoxicity assay. The class given is cell-based. The settings on record: MCF7, MCF-7, 72 hours, some cells marked (M). How it is done: The XTT assay is a non-radioactive alternative for the [^51 Cr] release cytotoxicity assay. XTT is a tetrazolium salt that is reduced to a formazan dye only by metabolically active, viable cells. The reduction of XTT is measured spectrophotometrically as OD490-OD650.
To measure the cytotoxicity of specific compounds against cancer cells, 9×10^3 MCF-7 human breast cancer cells, obtained from the American Type Culture Collection are plated per well in 96 well plates in DMEM medium with 10% fetal bovine serum, insulin, penicillin, and streptomycin. Following overnight culture at 37° C. and 5% CO2, the compounds to be tested, dissolved in DMSO, are added to the wells in 1 μl volume at the following concentrations: 80, 40, 20, 10, 5, 2.5, 1.25, and 0.625 μg/ml in triplicate. Additional concentrations are tested if required. 1 μl of DMSO is added to triplicate wells are the vehicle control. C75 is run at 40, 20, […], and 5 μg/ml in triplicate as positive controls. After 72 hours of incubation, cells are incubated for 4 hours with the XTT reagent as per manufacturer's instructions (Cell Proliferation Kit II (XTT) Roche). Plates are read at OD490 and OD650 on a Molecular Devices SpectraMax Plus Spectrophotometer. Three wells containing the XTT reagent without cells serve as the plate blank. XTT data are reported as OD490-OD650-Averages and standard error of the mean are computed using SOFTmax Pro software (Molecular Dynamics).
The IC50 for the compounds is defined as the concentration of drug leading to a 50% reduction in OD490-OD650 compared to controls. The OD490-OD650 are computed by the SOFTmax PRO software (Molecular Devices) for each compound concentration. IC50 is calculated by linear regression, plotting the FAS activity as percent of control versus drug concentrations. Linear regression, best-fit line, r^2, and 95% confidence intervals are determined using Prism Version 3.0 (Graph Pad Software).

Data set [2] shares this test system. Put plainly: Crystal violet cell growth assay. The class given is cell-based. The settings on record: MCF7, MCF-7, 72 hours, read-out: Cr. Violet(IC50). Put shortly: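 MCF-7 cells (5×10^4/well) in DMEM + 10% FBS, cultured overnight at 37° C, then given compounds in DMSO at 50, 40, 30, 20 and 10 μg/ml in triplicate for 72 h. Fixed cells stained with crystal violet, solubilised in SDS, OD490 read as growth; IC50 computed.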

Data set [3] is described as follows: Weight loss screen in Balb/C mice. The class given is in vivo. Particulars: for change in vivo at 60 mg/kg: ip, 60 mg/kg intraperitoneally; for change in vivo at 60 mg/kg / change in vivo at 30 mg/kg: read-out: Weight Loss; for Deaths in weight loss screen: 60 mg/kg. As to the method: Balb/C mice (Jackson Labs) are utilized for the initial weight loss screening. Animals are housed in temperature and 12 hour day/night cycle rooms and fed mouse chow and water ad lib. Three mice are utilized for each compound tested with vehicle controls in triplicate per experiment. For the experiments, mice are housed separately for each compound tested three mice to a cage. […] Mice are observed and weighed daily; average weights and standard errors are computed with Excel (Microsoft). The experiment continues until treated animals reach their pretreatment weights. […]

The subject of data set [4] is Enterococcus faecalis (ATCC # 29212). Put plainly: Broth microdilution MIC. The class given is cell-based. The settings on record: for MIC: Enterococcus faecalis, ATCC29212. Put shortly: (§1)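 Run in Mueller Hinton Broth and Trypticase Soy Broth, with inoculum at 0.5 McFarland diluted 1:10 and compounds in DMSO at 25 to 0.78 ug/ml (final well concentrations not given) in duplicate. OD600 read after 24 h at 37° C; MIC derived by linear regression.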

The subject of data set [5] is Escherichia coli (ATCC # 25922). Put plainly: Broth microdilution MIC. The class given is cell-based. Particulars: for MIC: Escherichia coli, ATCC25922. The method in brief:
as §1

For data set [6], the system named is Pseudomonas aeruginosa (ATCC # 27853). The experiment in a line: Broth microdilution MIC. Particulars: for PSAE/MH(MIC): Mueller Hinton Broth; for PSAE/Tsoy(MIC): Trypticase Soy Broth. The class given is cell-based. The method in brief: as §1
In data set [7] the test system is Staphylococcus aureus (ATCC # 29213). Put plainly: Broth microdilution MIC. The class given is cell-based. The settings on record: for MIC: Staphylococcus aureus, ATCC29213. Put shortly: as §1
Where [8] appears, read: Mueller Hinton Broth, read-out: EF/MH(MIC).
[9] abbreviates: Trypticase Soy Broth, read-out: EF/Tsoy(MIC).
The mark [10] stands for this setting: Trypticase Soy Broth, read-out: Ecoli/Tsoy(MIC).
The mark [11] stands for this setting: Mueller Hinton Broth, read-out: SA/MH(MIC).
[12] abbreviates: Trypticase Soy Broth, read-out: SA/Tsoy(MIC).

In brackets after ≈: the same amount, converted by molar mass. Like-named read-outs stand apart in the source and are kept apart here. Some results are limits rather than exact numbers.

With `CCCCCC[C@@]1(C)SC(=O)C=C1OCC(=O)NCC(=O)O` (racemic), the results for the IC50 in data set [1] and in data set [2] were greater than 80 µg/mL and greater than 50 µg/mL, respectively. The change in vivo at 60 mg/kg in data set [3] (Mus musculus, 48 h, day2) was found to be 3.5%. The MIC in data set [4] (setting [8]) is 121 µg/mL (≈ 367 µM); in data set [4] (setting [9]), 173 µg/mL (≈ 525 µM); in data set [5] (setting [10]) it was 235 µg/mL (≈ 713 µM); in data set [7] (setting [11]) it was 78 µg/mL (≈ 237 µM); in data set [7] (setting [12]), 225 µg/mL (≈ 683 µM). Also, the “Ecoli/MH(MIC)” value in data set [5] (Mueller Hinton Broth) is “Neg”. Also, the “PSAE/MH(MIC)” value in data set [6] is given as “Neg”. Also, the “PSAE/Tsoy(MIC)” value in data set [6] was “Neg”.
As to `C/C=C/C(C)=C/C1(C)SC(=O)C=C1O` (stereo not drawn), the IC50 in data set [1] was greater than 80 µg/mL; in data set [2], greater than 50 µg/mL. Besides, in data set [3] (Mus musculus, 24 h, day1), the change in vivo at 60 mg/kg was 4.1%. Besides, in data set [4] (Mueller Hinton Broth), the “EF/MH(MIC)” value was “Neg”. Besides, in data set [4] (Trypticase Soy Broth), the “EF/Tsoy(MIC)” value is “Neg”. The “Ecoli/MH(MIC)” value in data set [5] (Mueller Hinton Broth) is given as “Neg”. In addition, the “Ecoli/Tsoy(MIC)” value in data set [5] (Trypticase Soy Broth) was “Neg”. The “PSAE/MH(MIC)” value in data set [6] was “Neg”. Besides, the “PSAE/Tsoy(MIC)” value in data set [6] is recorded as “Neg”. The MIC in data set [7] (setting [11]) worked out at 52 µg/mL (≈ 247 µM); in data set [7] (setting [12]) it was 87 µg/mL (≈ 414 µM).
As to `CCCCCCC1(C)SC(=O)C=C1OC` (stereo not drawn), the IC50 in data set [1] worked out at 9.4 ± 1.5 µg/mL (≈ 41.2 µM); in data set [2], 26.3 ± 4.3 µg/mL (≈ 115 µM). Besides, the “Deaths in weight loss screen” value in data set [3] (day1, three mice) is 3 of 3 dead. In addition, in data set [3] (Mus musculus, 24 h, 30 mg/kg, day1), the change in vivo at 30 mg/kg was determined as 8.7%. The change in vivo at 10 mg/kg in data set [3] (Mus musculus, 72 h, 10 mg/kg (multiple doses), day3) worked out at 1%. Besides, the MIC in data set [4] (setting [8]) was 43 µg/mL (≈ 188 µM); in data set [4] (setting [9]), 126 µg/mL (≈ 552 µM); in data set [5] (setting [10]) it was 264 µg/mL (≈ 1160 µM); in data set [7] (setting [11]) it was 45 µg/mL (≈ 197 µM); in data set [7] (setting [12]) it was 48 µg/mL (≈ 210 µM). For the same compound, in data set [5] (Mueller Hinton Broth), the “Ecoli/MH(MIC)” value is listed as “Neg”. In data set [6], the “PSAE/MH(MIC)” value is given as “Neg”. For the same compound, the “PSAE/Tsoy(MIC)” value in data set [6] is recorded as “Neg”.
In the case of `C=CCC1=C(OC)C(C)(CCCCCCCC)SC1=O` (stereo not drawn), the IC50 was found to be 55 ± 2 µg/mL (≈ 186 µM) in data set [1] and 22.3 µg/mL (≈ 75.2 µM) in data set [2]. Besides, the change in vivo at 60 mg/kg in data set [3] (Mus musculus, 24 h, day1) turned out to be 7.9%. Besides, the MIC in data set [4] (setting [9]) is 169 µg/mL (≈ 570 µM); in data set [7] (setting [12]) it was 98 µg/mL (≈ 331 µM). Moreover, the “EF/MH(MIC)” value in data set [4] (Mueller Hinton Broth) is “Neg”. In addition, in data set [5] (Mueller Hinton Broth), the “Ecoli/MH(MIC)” value is reported as “Neg”. Also, in data set [5] (Trypticase Soy Broth), the “Ecoli/Tsoy(MIC)” value was “Neg”. The “PSAE/MH(MIC)” value in data set [6] is recorded as “Neg”. For the same compound, the “PSAE/Tsoy(MIC)” value in data set [6] is on record as “Neg”. In data set [7] (Mueller Hinton Broth), the “SA/MH(MIC)” value was “Neg”.
Take `C#CCOC1CC(=O)S[C@]1(C)CCCCCC` (mixture of isomers): the IC50 is 8.9 ± 2.3 µg/mL in data set [1] and 12.1 ± 1.5 µg/mL in data set [2]. In addition, the “Deaths in weight loss screen” value in data set [3] (day2, three mice) is on record as 3 of 3 dead. Besides, in data set [3] (Mus musculus, 72 h, 30 mg/kg, day3), the change in vivo at 30 mg/kg is 5.9%. Besides, the MIC in data set [4] (setting [9]) was found to be 83 µg/mL; in data set [5] (Mueller Hinton Broth, read-out: Ecoli/MH(MIC)) it was 203 µg/mL; in data set [7] (setting [11]), 53 µg/mL; in data set [7] (setting [12]), 80 µg/mL. The “EF/MH(MIC)” value in data set [4] (Mueller Hinton Broth) was “Neg”. Also, the “Ecoli/Tsoy(MIC)” value in data set [5] (Trypticase Soy Broth) was “Neg”. Moreover, the “PSAE/MH(MIC)” value in data set [6] is reported as “Neg”. Besides, in data set [6], the “PSAE/Tsoy(MIC)” value was “Neg”.
Take `CCCCCCCCC1(C)SC(=O)C(C(C)O)=C1OC` (stereo not drawn): the IC50 in data set [1] is 21 ± 2.9 µg/mL (≈ 69.9 µM); in data set [2] it was 23.2 µg/mL (≈ 77.2 µM). Besides, the change in vivo at 30 mg/kg in data set [3] (Mus musculus, 48 h) worked out at 0.2%. For the same compound, the MIC was 77 µg/mL (≈ 256 µM) in data set [4] (setting [8]); 25 µg/mL (≈ 83.2 µM) in data set [4] (setting [9]); 249 µg/mL (≈ 829 µM) in data set [5] (setting [10]); 53.3 ± 2.1 µg/mL (≈ 177 µM) in data set [7] (setting [11]); 16.2 ± 3.8 µg/mL (≈ 53.9 µM) in data set [7] (setting [12]). The “Ecoli/MH(MIC)” value in data set [5] (Mueller Hinton Broth) was “Neg”. In data set [6], the “PSAE/MH(MIC)” value is on record as “Neg”. The “PSAE/Tsoy(MIC)” value in data set [6] is “Neg”.

For the origin of these results see patent US7649012B2, “Compounds, pharmaceutical compositions containing same, and methods of use for same” (FASgen, Inc., priority 2002, dated 2010).
